According to paper PMC3909100, “Biochemical, Stabilization and Crystallization Studies on a Molecular Chaperone (PaoD) Involved in the Maturation of Molybdoenzymes” (PLoS ONE, 2014):
Where “and” joins values, the source holds several entries; their conditions need not be identical. Identical values can stand only once.

B1: PaoD (natural protein, Escherichia coli, UniProt P77183 1-318, looked up)
chain: MSYPLFDKDEHWHKPEQAFLTDDHRTILRFAVEALMSGKGAVLVTLVEIRGGAARPLGAQMVVREDGRYCGFVSGGCVEAAAAFEALEMMGSGRDREIRYGEGSPWFDIVLPCGGGITLTLHKLRSAQPLLAVLNRLEQRKPVGLRYDPQAQSLVCLPTQTRTGWNLNGFEVGFRPCVRLMIYGRSLEAQATASLAAATGYDSHIFDLFPASASAQIDTDTAVILLCHDLNRELPVLQAAREAKPFYLGALGSYRTHTLRLQKLHELGWSREETTQIRAPVGIFPKARDAHTLALSVLAEVASVRLHQEEDSCLPPSS
notes: PaoD, XdhC-like molecular chaperone of the periplasmic aldehyde oxidoreductase PaoABC, last gene of the paoABCD operon of Escherichia coli; calculated mass 34.8 kDa; the tag is inferred from the Ni-TED column and imidazole elution; also called molecular chaperone PaoD; E. coli PaoD; source: E. coli BL21(DE3), plasmid pMN87, purified (Ni-TED chromatography)

Experiments:
[1] = biological target: T1, PaoD (Escherichia coli, UniProt P77183); assay: ultrafiltration, bound cofactor oxidized to Form A, HPLC fluorescence; format: binding; details: 12 µM PaoD, 0-48 µM cofactor, 100 mM Tris-HCl, 300 mM NaCl, pH 7.2, 277 K
T1 construct: full length, expressed from plasmid pMN87 in E. coli BL21(DE3), Ni-TED purified (tag not described); dimer in solution
T1 sequence (P77183 1-318): B1 chain

[2] = biological target: T1, PaoD; assay: STD-NMR; format: binding; details: ca 30 µM PaoD, 3 mM ionic liquid, 50 mM Tris-HCl, 1 mM EDTA, 300 mM NaCl, pH 8.0, 310 K; signals from cation ring protons; weak surface interaction
[3] = biological target: the molecule itself; assay: SEC; freshly purified PaoD on Superdex 75 HR10/30, 50 mM Tris-HCl, 300 mM NaCl, pH 8.0, 283 K, 0.5 mL/min; column calibrated with Bio-Rad standards

Molecule	STD-NMR [2]	further results
Nc1nc2c(c(=O)[nH]1)N[C@H]1C(S)=C(S)[C@@H](COP(=O)(O)O)O[C@H]1N2 [MPT]		ultrafiltration, bound cofactor oxidized to Form A, HPLC fluorescence [1]: The obtained chromatograms showed that Mo-MPT and MPT was bound to PaoD
C[n+]1ccn(CCO)c1 [[C2OHmim]PF6]	aromatic protons of the cation were detected both for [C2OHmim]PF6 and [C4mim]Cl	
CCCC[n+]1ccn(C)c1 [[C4mim]Cl]	aromatic protons of the cation were detected both for [C2OHmim]PF6 and [C4mim]Cl	
B1		stoichiometry N [3]: 2 and 4
